Results taken from publication PMC4335020, “Single Oral Dose Pharmacokinetics of Decursin and Decursinol Angelate in Healthy Adult Men and Women” (PLoS ONE, 2015).
Read-outs that look alike come from different tables or passages of the source.

Assay: Single oral dose human plasma pharmacokinetics of D, DA and DOH after Cogni.Q
Format: in vivo
Settings: for Tmax / AUC(0-t) / Cmax / half-life: human, plasma
From the text: Ten healthy male and 10 female subjects were recruited by public announcement in Amarillo, TX, from January 2013 to April 2013 (see Fig. 1 CONSORT diagram). The sample size for each gender was chosen without power calculation due to the lack of prior knowledge of PK parameter variance in humans. After receiving informed consent verbally and in writing, the health status of each candidate was confirmed by health questionnaire, plasma biochemistry (hepatic and renal functions), complete blood cell count (CBC), and a physical examination by a participating academic physician. Subjects with diabetes, or pregnant, perinatal and breastfeeding women were excluded. For the 48 hours preceding study visit until the final blood draw, all subjects were instructed to avoid taking any prescription or nonprescription drugs, vitamins, and herbal/dietary supplements. Each subject was compensated for participating in the study per TTUHSC IRB approved rate.
Eligible subjects arrived at our clinical facility at 0700 (7:00 am) on the test day after a fast beginning at 2200 (10:00 pm) the previous night. After a brief review of vital signs, the nurse placed an intravenous (IV) line with saline drip in one arm of each subject. A baseline pre-dose (hour 0) blood sample was drawn through the IV line; after that subjects swallowed four Cogni.Q vegicaps with 240 mL of water at hour 0 under direct supervision. Subjects stayed at the clinical facility in their room for the next 12 hours, returning at 24 and 48 hours. Blood was drawn at baseline (hour 0) and at 0.5, 1, 2, 3, 4, 6, 8, 12, 24 and 48 hours after dosing into Vacutainer Blood Collection Tube (Becton-Dickinson, Franklin Lakes, NJ. Product Number: 367874, Sodium heparin was used as anti-coagulant). Water was allowed as desired except for within the first hour after Cogni.Q consumption. All subjects received standardized meals at post-dose hours 4.5 and 9.5 but no food was allowed for at least the first 4 hours post-dose.
Plasma was prepared by centrifuging the heparinized blood at 1000 g for 15 minutes at room temperature. Urine samples (40mL) were collected within time spans of 0–4, 4–8, 8–12 and 12–24 hours (total volume of urine was recorded). All plasma and urine samples were put on dry ice immediately and then stored at -80°C freezer until analysis.
Plasma samples were extracted with a validated solid supported liquid extraction (SLE) method facilitated with a positive pressure manifold (Biotage, Charlotte, NC). Briefly, 100 μL of plasma sample was spiked with 5 μL of 10 ng/μL prednisolone (IS), diluted with 200 μL of LC-MS grade water, mixed and loaded onto ISOLUTE SLE+ 400 μL Array Well cartridges (Biotage, Charlotte, NC). A pulse of minimum positive pressure was applied to facilitate the samples absorption into the cartridges. After the samples were allowed to absorb for 5 min, the compounds were eluted with 2×500 μL tert-butyl methyl ether. The eluent was dried in a Speedvac and the resulting residue was reconstituted in 50 μL of methanol for UHPLC-MS/MS analysis.
Eight-point calibration curves were constructed for D, DA and DOH, at concentrations of 0.1, 0.5, 1, 5, 10, 20, 50 and 100 μg/L for D and DA, and at concentrations of 1, 5, 10, 50, 100, 200, 500 and 1000 μg/L for DOH, respectively. The linear range was 0.1–100 μg/L (0.3–300 nmol/L), 0.1–100 μg/L (0.3–300 nmol/L) and 1–1000 μg/L (4–4000 nmol/L) for D, DA and DOH, respectively. The inter- and intra-assay CV were lower than 6.5% and the accuracy was between 90–105%. Calibration curve was run for each batch of samples analyzed. The mean calibration curve correlation coefficient (r) for D, DA and DOH was 0.999, 0.999 and 0.998, respectively (data from 7–10 calibration curves). In addition, 70% of the plasma samples were extracted and analyzed twice, the data from two replicate analyses were nearly identical and combined for final data analyses and presentation. […]

SMILES: C/C=C(/C)C(=O)O[C@H]1Cc2cc3ccc(=O)oc3cc2OC1(C)C [DA, decursinol angelate]
- Tmax (oral, 4 Cogni.Q vegicaps, subject S9 (158 lb), read-out: Tmax): 1 h
- AUC(0-t) (oral, 4 Cogni.Q vegicaps, subject S10 (185 lb), read-out: AUC0-48h): 115 nmol·h/L
- Cmax (oral, 4 Cogni.Q vegicaps, subject S10 (185 lb), read-out: Cmax): 7 nM
- half-life (oral, 4 Cogni.Q vegicaps, subject S10 (185 lb), read-out: Terminal t1/2, h (converted)): 13.3 h
- Tmax (oral, 4 Cogni.Q vegicaps, subject S10 (185 lb), read-out: Tmax): 2 h
- AUC(0-t) (oral, 4 Cogni.Q vegicaps, subject S11 (178 lb), read-out: AUC0-48h): 168 nmol·h/L
- Cmax (oral, 4 Cogni.Q vegicaps, subject S11 (178 lb), read-out: Cmax): 29.7 nM
- half-life (oral, 4 Cogni.Q vegicaps, subject S11 (178 lb), read-out: Terminal t1/2, h (converted)): 14.2 h
- Tmax (oral, 4 Cogni.Q vegicaps, subject S11 (178 lb), read-out: Tmax): 1 h
- AUC(0-t) (oral, 4 Cogni.Q vegicaps, subject S12 (169 lb), read-out: AUC0-48h): 150 nmol·h/L
- Cmax (oral, 4 Cogni.Q vegicaps, subject S12 (169 lb), read-out: Cmax): 16.8 nM
- half-life (oral, 4 Cogni.Q vegicaps, subject S12 (169 lb), read-out: Terminal t1/2, h (converted)): 40.2 h
- Tmax (oral, 4 Cogni.Q vegicaps, subject S12 (169 lb), read-out: Tmax): 2 h
- AUC(0-t) (oral, 4 Cogni.Q vegicaps, subject S13 (192 lb), read-out: AUC0-48h): 106 nmol·h/L
- Cmax (oral, 4 Cogni.Q vegicaps, subject S13 (192 lb), read-out: Cmax): 11.2 nM
- half-life (oral, 4 Cogni.Q vegicaps, subject S13 (192 lb), read-out: Terminal t1/2, h (converted)): 12.7 h
- Tmax (oral, 4 Cogni.Q vegicaps, subject S13 (192 lb), read-out: Tmax): 1 h
- AUC(0-t) (oral, 4 Cogni.Q vegicaps, subject S14 (200 lb), read-out: AUC0-48h): 96.4 nmol·h/L
- Cmax (oral, 4 Cogni.Q vegicaps, subject S14 (200 lb), read-out: Cmax): 24.4 nM
- half-life (oral, 4 Cogni.Q vegicaps, subject S14 (200 lb), read-out: Terminal t1/2, h (converted)): 12.6 h
- Tmax (oral, 4 Cogni.Q vegicaps, subject S14 (200 lb), read-out: Tmax): 1 h
- AUC(0-t) (oral, 4 Cogni.Q vegicaps, subject S15 (177 lb), read-out: AUC0-48h): 512 nmol·h/L
- Cmax (oral, 4 Cogni.Q vegicaps, subject S15 (177 lb), read-out: Cmax): 196 nM
- half-life (oral, 4 Cogni.Q vegicaps, subject S15 (177 lb), read-out: Terminal t1/2, h (converted)): 18.7 h
- Tmax (oral, 4 Cogni.Q vegicaps, subject S15 (177 lb), read-out: Tmax): 1 h
- Tmax (oral, 4 Cogni.Q vegicaps, subject S16 (175 lb), read-out: Tmax): 3 h
- AUC(0-t) (oral, 4 Cogni.Q vegicaps, subject S17 (147 lb), read-out: AUC0-48h): 593 nmol·h/L
- Cmax (oral, 4 Cogni.Q vegicaps, subject S17 (147 lb), read-out: Cmax): 104 nM
- half-life (oral, 4 Cogni.Q vegicaps, subject S17 (147 lb), read-out: Terminal t1/2, h (converted)): 24.2 h
- Tmax (oral, 4 Cogni.Q vegicaps, subject S17 (147 lb), read-out: Tmax): 2 h
- half-life (oral, 4 Cogni.Q vegicaps, subject S18 (180 lb), outlier, excluded from means, read-out: Terminal t1/2, h (converted)): 55.7 h
- AUC(0-t) (oral, 4 Cogni.Q vegicaps, subject S18 (180 lb), read-out: AUC0-48h): 48.1 nmol·h/L
- Cmax (oral, 4 Cogni.Q vegicaps, subject S18 (180 lb), read-out: Cmax): 3 nM
- Tmax (oral, 4 Cogni.Q vegicaps, subject S18 (180 lb), read-out: Tmax): 4 h
- AUC(0-t) (oral, 4 Cogni.Q vegicaps, subject S19 (130 lb), read-out: AUC0-48h): 87.7 nmol·h/L
- Cmax (oral, 4 Cogni.Q vegicaps, subject S19 (130 lb), read-out: Cmax): 6.9 nM
- half-life (oral, 4 Cogni.Q vegicaps, subject S19 (130 lb), read-out: Terminal t1/2, h (converted)): 16 h
- Tmax (oral, 4 Cogni.Q vegicaps, subject S19 (130 lb), read-out: Tmax): 4 h
- half-life (oral, subject S16 (175 lb), outlier, excluded from means, read-out: Terminal t1/2, h (converted)): 190 h
- AUC(0-t) (oral, subject S16 (175 lb), read-out: AUC0-48h): 68.4 nmol·h/L
- Cmax (oral, subject S16 (175 lb), read-out: Cmax): 4.3 nM
- AUC(0-t) (oral, subject S20 (200 lb), read-out: AUC0-48h): 170 nmol·h/L
- Cmax (oral, subject S20 (200 lb), read-out: Cmax): 17.2 nM
- half-life (oral, subject S20 (200 lb), read-out: Terminal t1/2, h (converted)): 18.8 h
- Tmax (oral, subject S20 (200 lb), read-out: Tmax): 2 h
- conversion of D/DA to DOH (humans, from plasma AUC0–48h values): > 98%
- AUC(0-t) (male, oral, 4 Cogni.Q vegicaps, Men n=10 (S1 Table), read-out: AUC0-48h, Mean): 327 nmol·h/L
- Cmax (male, oral, 4 Cogni.Q vegicaps, Men n=10 (S1 Table), read-out: Cmax, nM, Mean): 52.2 nM
- Tmax (male, oral, 4 Cogni.Q vegicaps, Men n=10 (S1 Table), read-out: Tmax, h, Mean): 2.1 h
- half-life (male, oral, Men, outliers excluded (S1 Table), read-out: Terminal t1/2, h, Mean (converted)): 14.9 h
- AUC(0-t) (male, po, Men N = 10, single oral dose Cogni.Q, read-out: AUC0–48h, h.nmol/L Mean (SD)): 327 nmol·h/L
- Cmax (male, po, Men N = 10, single oral dose Cogni.Q, read-out: Cmax, nmol/L, Mean (SD)): 52.2 nM
- Tmax (male, po, Men N = 10, single oral dose Cogni.Q, read-out: Tmax, h, Mean (SD)): 2.1 h
- half-life (male, po, Men, outlier subjects excluded, single oral dose Cogni.Q, read-out: T1/2, h, terminal Mean (SD) (converted)): 14.9 h
- difference in C max among subjects in the same gender (same gender): more than 20 fold
